Experimental data taken from patent US11576979B2, “Pyrrolobenzodiazepine prodrugs and antibody conjugates thereof” (GENENTECH, INC., priority 2016, dated 2023).

Legend:
WSU-DLCL2 = assay: CELLTITER GLO cell proliferation assay (Example 6); type: cell-based; details: Homo sapiens, WSUDLCL2, Table 4; data in parenthesis = repeat evaluations; read-out: IC50 potency WSU-DLCL2
Method: (§1) The toxicity of PBD monomer disulfide prodrugs and diaphorase prodrugs were evaluated against KPL-4, WSU-DLCL2, HCT-116, HCC1395 and Jurkat cell cultures. […] KPL-4 cells further have a high expression of DTD on the order of about 839 nRPKM (where nRPKM refers to normalized reads per Kb of transcript length per million mapped read).
(§2) Potency of the disulfide and DT-diaphorase prodrugs was measured by a cell proliferation assay employing the following protocol (CELLTITER GLO™ Luminescent Cell Viability Assay, Promega Corp.). First, an aliquot of 40 ul of cell culture containing about 8000 cells of WSU-DLCL2 cells (low NQO1 gene and GSH level), 4000 cells of KPL-4 (high NQO1 gene and GSH level), HCT-116 cells, HCC1395 cells or Jurkat cells in RPMI-1640 culture medium (supplemented with 10% fetal bovine serum, 2 mM glutamine, 50 uM cystine, and 0.015 g/L L-methionine) was deposited in each well of a 384-well flat clear bottom white polystyrene tissue culture-treated microplates (Corning, N.Y.). Second, control wells were prepared containing medium with and without cells. Third, compounds with and without disulfide or DT-diaphorase prodrugs (n=3) were added to the experimental wells using ECHO acoustic liquid handling technology (Labcyte Inc, Sunnyvale, Calif.) to create a 10-point dose-response curve in triplicate with 1:3× serial dilution. Fourth, cells were cultured in a humidified incubator set at 37° C. and maintaining an atmosphere of 5% CO2. Fifth, the plates were equilibrated to room temperature for approximately 30 minutes. Sixth, a volume of CELLTITER GLO™ Reagent equal to the volume of cell culture medium present in each well was added. Seventh, the contents were mixed for 10 minutes on an orbital shaker in the dark to induce cell lysis. Eighth, the plate was incubated at room temperature for 30 minutes to stabilize the luminescence signal. Ninth, luminescence was recorded and reported in graphs as % activity where RLU (relative luminescence units) was normalized to controls (no compound control minus no cell control). Tenth, data was plotted as individual points for each replicate (n=3) for each antibody as the mean of luminescence for each set of replicates, with standard deviation error bars.

HCC1395 = assay: CELLTITER GLO cell proliferation assay (Example 6); type: cell-based; details: Homo sapiens, Table 4, read-out: IC50 potency HCC1395
Method: as §1, §2

KPL-4 [1] = assay: CELLTITER GLO cell proliferation assay (Example 6); type: cell-based; details: KPL4, Table 4; data in parenthesis = repeat evaluations; read-out: IC50 potency KPL-4
Method: as §1, §2

Jurkat = assay: CELLTITER GLO cell proliferation assay (Example 6); type: cell-based; details: Homo sapiens, Table 4, read-out: IC50 potency Jurkat
Method: as §1, §2

HCT 116 = assay: Standard cell panel (Table 7B); type: cell-based; details: Homo sapiens
Source text: (§3) PBD dimer control 1 and PBD dimer control 2 were further evaluated in standard cell panels against a number of cell lines.

DLD-1 = assay: Standard cell panel (Table 7B); type: cell-based; details: Homo sapiens
Source text: as §3

MDA-MB-231 = assay: Standard cell panel (Table 7B); type: cell-based; details: Homo sapiens
Source text: as §3

BJAB/Pgp = assay: Standard cell panel (Table 7B); type: cell-based; details: Homo sapiens
Source text: as §3

A2058 = assay: Standard cell panel (Table 7B); type: cell-based; details: Homo sapiens
Source text: as §3

MES-SA/Dx5 = assay: Standard cell panel (Table 7B); type: cell-based; details: Homo sapiens
Source text: as §3

MES-SA = assay: Standard cell panel (Table 7B); type: cell-based; details: Homo sapiens
Source text: as §3

BJAB = assay: Standard cell panel (Table 7B); type: cell-based; details: Homo sapiens
Source text: as §3

KPL-4 [2] = assay: Standard cell panel (Table 7B); type: cell-based; details: KPL4
Source text: as §3

HL-60 = assay: Standard cell panel (Table 7B); type: cell-based; details: Homo sapiens
Source text: as §3

[3] = test system: double strand DNA Oligos 1 and 2; assay: DNA oligo binding, LC/MS/UV; details: 100 uM compound, 100 uM DNA, 1 hour, 37 C
Method: For DNA binding determination, the compounds were incubated at 100 μM with 100 μM double strand DNA Oligos 1 and 2 for 1 hour in 10 mM Bis-Tris, pH 7.1 at 37° C. The single strand DNA Oligos (5′-TATAGAATCTATA-3′ and 3′-ATATCTTAGATAT-5′) were synthesized at Genentech. The samples were analyzed by LC/MS/UV (210-450 nm) on Sciex TripleTOF 5600 on a Hypersil Gold C18 column (100×2.1, 1.9 Thermo Scientific). The column was eluted at 0.4 mL/min by a gradient of buffer A (50 mM hexafluoro-isopropanol and 15 mM diisopropylethylamine) to buffer B (50% A and 50% of 1:1 methanol:acetonitrile), 5% 0-0.5 min, 5-25% B 0.5-25 min, 25-95% B 25-40 min, and to 95% B 40-42 min. The % remaining was an average of the starting DNA oligos remaining in incubations (n=2). The products were characterized by LC/MS in a negative ESI ion mode.

[4] = test system: MDA-MB-453 tumor cell line; assay: in vitro tumor cell killing assay, 3 days (Example 13); type: cell-based; details: Homo sapiens, MDA-MB-453, 72 h
Method: The toxicity of various PBD monomer and dimer boronic acid prodrug compounds were evaluated for cell toxicity. In the in vitro tumor cell killing assay, the cells were added to each well of 96-well microtiter plates at 8,000 cells per well and were incubated overnight at 37° C. in a humidified atmosphere of 5% CO2. The cells were exposed to various concentration of the indicated prodrug, positive control and negative control compounds. Where silvestrol was evaluated, a 1:3 serial dilution was used. After incubation for 3 days, Cell titer-Glo reagent (Promega, Madison Wis.) was added to the wells at 100 μL per well followed by a 10-minute incubation at room temperature, and the luminescent signal was measured using a Packard/Perkin-Elmer TopCount.
The toxicity of PBD monomer boronic acid prodrug 1 was evaluated against MDA-MB-453 tumor cell line for cell viability. PBD monomer control 1 was used as a positive control and PBD monomer control 2 was used as a negative control. The toxicity study was repeated wherein the PBD prodrug and controls were administered in combination with silvestrol. FIG. 15C depicts a plot of MDA-MB-453 cell kill versus drug concentration in μM three days after exposure to: (i) a PBD monomer control; (ii) a PBD monomer control having a benzyl formate moiety at the N10 PBD position; and (iii) a PBD monomer boronic acid prodrug. […]

WSU Cell line = assay: Cell viability, DTD-activated quinone prodrugs (Example 15); type: cell-based; details: WSU Cell line (low DTD); Table 10; read-out: IC50 Potency
Method: (§4) The toxicity of PBD dimer diaphorase prodrug 1, PBD monomer diaphorase prodrug 2, PBD dimer control 1 and PBD monomer control 1 were evaluated against KPL-4 and WSU cell lines for cell viability. The KPL-4 cell line is was a high DTD cell line characterized by NQO1 nRPKM of 839 and the WSU cell line was a low DTD cell line characterized by a NQO1 nRPKM of 1.36. The IC50 ratios are based on the prodrug IC50 value relative to the PBD dimer control.

KPL-4 Cell line = assay: as above; type: cell-based; details: KPL4; KPL-4 Cell line (high DTD); Table 10; read-out: IC50 Potency
Method: as §4

DT Diaphorase = target: T1, DT Diaphorase (Homo sapiens, UniProt P15559); assay: DT diaphorase activated payload release (LC-MS MRM quant); type: biochemical; details: after 90 minutes incubation
T1 construct: purchased Sigma D1315
T1 sequence (P15559 whole entry): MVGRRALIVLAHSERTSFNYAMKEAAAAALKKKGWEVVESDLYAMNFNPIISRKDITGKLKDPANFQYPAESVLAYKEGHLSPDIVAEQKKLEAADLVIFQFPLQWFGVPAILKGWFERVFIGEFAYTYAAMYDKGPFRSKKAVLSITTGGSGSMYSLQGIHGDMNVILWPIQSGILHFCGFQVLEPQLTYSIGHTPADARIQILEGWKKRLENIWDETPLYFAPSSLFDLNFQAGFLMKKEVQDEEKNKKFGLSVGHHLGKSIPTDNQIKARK
Method: In addition to the potency evaluation, the release of PBD dimer diaphorase prodrug 1 was evaluated. The release was measured to be 12% after 90 minutes incubation according to the following method. First, a master mix reaction was prepared containing 0.5 uM of the […], […] NADPH […]. Second, the reaction mix was incubated at room temperature for 5, 30, 90 min. […] Finally, data was analyzed using MultiQuant analysis software and standards were calculated using GraphPad Prism 6 linear regression fit.
An in vitro DT diaphorase activated drug release assay was used to measure NADPH depletion. DT diaphorase activated release of Norfloxacin and Payload (PBD) was measured by the in vitro depletion of NADPH. The assay method was modified from the absorbance measurement of NADPH at A340 (Osman et. al, Chemico-Biological Interactions 147 (2004) 99-108) due to the interference of compounds. The depletion of NADPH was measured by monitoring the decrease of fluorescence intensity of NADPH at 480 nm after being excited at 340 nM. […] The fluorescence intensity (RFU) of DNAPH was recorded on M1000 plate reader (Tecan) with excitation at 340 nm and emission at 480 nm. For data analysis, data was analyzed and plotted using Prism GraphPad 6. […]

HCT-116 = assay: CELLTITER GLO cell proliferation assay (Example 6); type: cell-based; details: Homo sapiens, HCT-116; Table 4; read-out: IC50 potency HCT-116
Method: as §1, §2

## C=C1C[C@H]2C=Nc3cc(OCCCCCOc4cc5c(cc4OC)C(=O)N4CC(=C)C[C@H]4C(O)N5C(=O)OCc4ccc(NC(=O)OCc5cc6c(n5C)C(=O)C=C(OC)C6=O)cc4)c(OC)cc3C(=O)N2C1 (stereo partly shown) [PBD dimer diaphorase prodrug 2]
WSU-DLCL2
  IC50: 0.8 nM
HCC1395
  IC50: 9.84 nM
KPL-4 [1]
  IC50: 10.1 nM
Jurkat
  IC50: 1.25 nM

## C=C1C[C@H]2CNc3cc(OCCCCCOc4cc5c(cc4OC)C(=O)N4CC(=C)C[C@H]4CN5)c(OC)cc3C(=O)N2C1 [PBD dimer control 2]
HCT 116
  IC50: 15 nM
DLD-1
  IC50: > 100 nM
MDA-MB-231
  IC50: 73.2 nM
BJAB/Pgp
  IC50: 53.7 nM
A2058
  IC50: 5.3 nM
MES-SA/Dx5
  IC50: > 100 nM
MES-SA
  IC50: 10 nM
BJAB
  IC50: 4.9 nM
KPL-4 [2]
  IC50: 67.4 nM
HL-60
  IC50: 2.4 nM
[3]
  % DNA oligo remaining: 100%

## C=C1C[C@H]2C(O)N(C(=O)OCc3ccc(B4OC(C)(C)C(C)(C)O4)cc3)c3cc(OC)c(OC)cc3C(=O)N2C1 (stereo partly shown) [PBD monomer boronic acid prodrug 1]
[4]
  EC50: 1850 nM

## C=C1C[C@H]2C=Nc3cc(OCCCCCOc4cc5c(cc4OC)C(=O)N4CC(=C)C[C@H]4C(O)N5C(=O)OCc4cc5c(n4C)C(=O)C=C(OC)C5=O)c(OC)cc3C(=O)N2C1 (stereo partly shown) [PBD dimer diaphorase prodrug 1]
WSU Cell line
  IC50: 8.56 nM
KPL-4 Cell line
  IC50: 35.5 nM
DT Diaphorase
  release: 12%
HCT-116
  IC50: 21.3 nM
HCC1395
  IC50: 14.2 nM
Jurkat
  IC50: 2.05 nM
